23 molecules from PubChem BioAssay AID248 (DTP/NCI, 2004) can be followed below.

The test system of the assay is L1210 leukemia ip in BDF1 mice, survival T/C. The assay can be described thus: NCI In Vivo Anticancer Drug Screen. Data for tumor model L1210 Leukemia (intraperitoneal) in B6D2F1 (BDF1) mice. As to conditions: endpoint: mean survival time, higher = longer survival. The method, boiled down:
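Transplanted-tumor mice were given test agent; controls received vehicle only. Survival readings from the two groups were divided (treated over control).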

The mark [1] stands for this setting: dose: 100.0 mg/kg/injection, schedule: Q04DX003 (ip), vehicle: saline.
Where [2] appears, read: dose: 200.0 mg/kg/injection, schedule: Q04DX003 (ip), vehicle: saline.
Where [3] appears, read: dose: 400.0 mg/kg/injection, schedule: Q04DX003 (ip), vehicle: saline.
[4] abbreviates: dose: 50.0 mg/kg/injection, schedule: Q01DX001 (ip), vehicle: saline.
Where [5] appears, read: dose: 100.0 mg/kg/injection, schedule: Q01DX001 (ip), vehicle: saline.
Where [6] appears, read: dose: 200.0 mg/kg/injection, schedule: Q01DX001 (ip), vehicle: saline.
Setting [7] is: dose: 400.0 mg/kg/injection, schedule: Q01DX001 (ip), vehicle: saline.
Where [8] appears, read: dose: 100.0 mg/kg/injection, schedule: Q01DX009 (ip), vehicle: saline.
The mark [9] stands for this setting: dose: 100.0 mg/kg/injection, schedule: Q04DX003 (ip), vehicle: saline with Tween-80.
Where [10] appears, read: dose: 200.0 mg/kg/injection, schedule: Q04DX003 (ip), vehicle: saline with Tween-80.
Where [11] appears, read: dose: 400.0 mg/kg/injection, schedule: Q04DX003 (ip), vehicle: saline with Tween-80.
The mark [12] stands for this setting: dose: 100.0 mg/kg/injection, schedule: Q01DX009 (ip), vehicle: saline with Tween-80.
Setting [13] is: dose: 200.0 mg/kg/injection, schedule: Q01DX009 (ip), vehicle: saline with Tween-80.
Where [14] appears, read: dose: 100.0 mg/kg/injection, schedule: Q01DX001 (ip), vehicle: carboxymethylcellulose (CMC).
[15] abbreviates: dose: 400.0 mg/kg/injection, schedule: Q01DX001 (ip), vehicle: carboxymethylcellulose (CMC).
Where [16] appears, read: dose: 100.0 mg/kg/injection, schedule: Q01DX009 (ip), vehicle: Klucel (hydroxypropylcellulose) (HPC).
The mark [17] stands for this setting: dose: 200.0 mg/kg/injection, schedule: Q01DX009 (ip), vehicle: Klucel (hydroxypropylcellulose) (HPC).
Setting [18] is: dose: 400.0 mg/kg/injection, schedule: Q01DX009 (ip), vehicle: Klucel (hydroxypropylcellulose) (HPC).
Setting [19] is: dose: 100.0 mg/kg/injection, schedule: Q04DX003 (ip), vehicle: Klucel (hydroxypropylcellulose) (HPC).
Setting [20] is: dose: 200.0 mg/kg/injection, schedule: Q04DX003 (ip), vehicle: Klucel (hydroxypropylcellulose) (HPC).
Setting [21] is: dose: 400.0 mg/kg/injection, schedule: Q04DX003 (ip), vehicle: Klucel (hydroxypropylcellulose) (HPC).

Inconclusive results and toxic doses are left out.

For the molecule `CNc1nn[nH]n1`, the T/C under setting [1] is 100 % of control, the T/C under setting [2] is 93 % of control and the T/C under setting [3] is 89 % of control.

Take `CN(C)c1ccc(/C=N\NC(=O)CCCC(=O)N/N=C/c2ccc(N(C)C)cc2)cc1`: the T/C was 93 % of control under setting [4], 96 % of control under setting [5], 98 % of control under setting [6] and 93 % of control under setting [7].

Turning to `COC(=O)/C=C/C(Oc1ccc(C)cc1)C(=O)OC` (configuration not stated), the T/C is 98 % of control (dose: 75.0 mg/kg/injection, schedule: Q04DX003 (ip), vehicle: other); 96 % of control (dose: 150.0 mg/kg/injection, schedule: Q04DX003 (ip), vehicle: other); 98 % of control (dose: 300.0 mg/kg/injection, schedule: Q04DX003 (ip), vehicle: other).

On to `CNC1C(OC2C(OC)OC(C)C2(O)CO)OC(CO)C(O)C1O` (configuration not stated), for which the T/C is, setting by setting: under setting [1], 110 % of control; under setting [2], 97 % of control; under setting [3], 97 % of control.

Turning to `CCCCOP(=O)(Cc1ccc(Cl)c(Cl)c1)OCCCC`, the T/C (dose: 100.0 mg/kg/injection, schedule: Q04DX002 (sc), vehicle: olive oil, sesame oil, peanut oil) is 98 % of control; the T/C (dose: 200.0 mg/kg/injection, schedule: Q04DX002 (sc), vehicle: olive oil, sesame oil, peanut oil) was 102 % of control; the T/C (dose: 400.0 mg/kg/injection, schedule: Q04DX002 (sc), vehicle: olive oil, sesame oil, peanut oil) is 98 % of control.

Regarding `Br/C=C\c1ccccc1`, the T/C is 86 % of control (dose: 50.0 mg/kg/injection, schedule: Q01DX009 (ip), vehicle: acetone); 107 % of control under setting [8]; 97 % of control under setting [1]; 95 % of control (dose: 200.0 mg/kg/injection, schedule: Q01DX009 (ip), vehicle: acetone); 94 % of control under setting [2]; 98 % of control under setting [3].

In the case of `O=C1c2ccccc2C(=O)N1CNc1cccc(NCN2C(=O)c3ccccc3C2=O)c1`, the T/C under setting [9] is 91 % of control, the T/C under setting [10] is 97 % of control and the T/C under setting [11] is 102 % of control.

As to `O=C1CC(C(=O)O)C(C(=O)O)O1` (configuration not stated), the T/C is, setting by setting: under setting [4], 97 % of control; (dose: 75.0 mg/kg/injection, schedule: Q01DX001 (ip), vehicle: saline) 101 % of control; under setting [5], 92 % of control; (dose: 150.0 mg/kg/injection, schedule: Q01DX001 (ip), vehicle: saline) 97 % of control; under setting [6], 90 % of control.

For `CC(C)(C)Cc1cc(O)c2c(c1O)C(=O)c1ccccc1C2=O`, the T/C reads like this: under setting [12], 98 % of control; under setting [9], 97 % of control; under setting [13], 98 % of control; under setting [10], 97 % of control; (dose: 400.0 mg/kg/injection, schedule: Q01DX009 (ip), vehicle: saline with Tween-80) 96 % of control; under setting [11], 92 % of control.

Consider `N#Cc1c(N)ncn1C1OC(CO)C(O)C1O` (configuration not stated), for which the T/C under setting [5] was 96 % of control, the T/C under setting [6] is 104 % of control and the T/C under setting [7] is 109 % of control.

Turning to `Cc1[nH]c(=O)[nH]c(=O)c1/C=C/C(=O)O`, the T/C by setting is: under setting [5], 97 % of control; under setting [8], 108 % of control; under setting [6], 100 % of control; (dose: 200.0 mg/kg/injection, schedule: Q01DX009 (ip), vehicle: saline) 102 % of control; under setting [7], 97 % of control; (dose: 400.0 mg/kg/injection, schedule: Q01DX009 (ip), vehicle: saline) 106 % of control.

Consider `CCOC(=O)C(Cc1ccc(N(CCCl)CCCl)cc1)NP1(=O)NCCCO1` (configuration not stated), for which the T/C was 123 % of control (dose: 2.0 mg/kg/injection, schedule: Q01DX015 (ip), vehicle: carboxymethylcellulose (CMC)); 92 % of control (dose: 14.0 mg/kg/injection, schedule: Q01DX015 (ip), vehicle: carboxymethylcellulose (CMC)); 167 % of control (dose: 18.0 mg/kg/injection, schedule: Q01DX015 (ip), vehicle: other); 117 % of control (dose: 28.14 mg/kg/injection, schedule: Q01DX015 (ip), vehicle: carboxymethylcellulose (CMC)); 156 % of control (dose: 30.0 mg/kg/injection, schedule: Q01DX015 (ip), vehicle: other); 94 % of control (dose: 48.0 mg/kg/injection, schedule: Q01DX015 (ip), vehicle: carboxymethylcellulose (CMC)). For the same molecule, the T/C was 109 % of control (dose: 50.0 mg/kg/injection, schedule: Q01DX015 (ip), vehicle: other); 111 % of control under setting [14]; 160 % of control (dose: 100.0 mg/kg/injection, schedule: Q01DX001 (ip), vehicle: other); 115 % of control under setting [15].

As for `COc1ccc(C(c2ccccc2)C(CO)CO)cc1` (configuration not stated), the T/C by setting is: (dose: 75.0 mg/kg/injection, schedule: Q04DX002 (ip), vehicle: Klucel (hydroxypropylcellulose) (HPC)) 90 % of control; (dose: 150.0 mg/kg/injection, schedule: Q04DX002 (ip), vehicle: Klucel (hydroxypropylcellulose) (HPC)) 93 % of control; (dose: 300.0 mg/kg/injection, schedule: Q04DX002 (ip), vehicle: Klucel (hydroxypropylcellulose) (HPC)) 87 % of control.

On to `CCC1(C)NC(C(=O)O)CS1` (configuration not stated), for which the T/C under setting [1] is 105 % of control, the T/C under setting [2] is 107 % of control and the T/C under setting [3] is 100 % of control.

For `CC1CC(C)NC(=O)N1` (configuration not stated), the T/C is, setting by setting: (dose: 50.0 mg/kg/injection, schedule: Q04DX002 (ip), vehicle: saline with Tween-80) 98 % of control; (dose: 100.0 mg/kg/injection, schedule: Q04DX002 (ip), vehicle: saline with Tween-80) 94 % of control; (dose: 200.0 mg/kg/injection, schedule: Q04DX002 (ip), vehicle: saline with Tween-80) 91 % of control; (dose: 400.0 mg/kg/injection, schedule: Q04DX002 (ip), vehicle: saline with Tween-80) 98 % of control.

For `CCCCOC(=O)c1ccc(NC(=O)NC)cc1`, the T/C runs as follows: under setting [16], 100 % of control; under setting [17], 101 % of control; under setting [18], 101 % of control.

Take `O=S(=O)(CCN1CCCCC1)c1ccc(F)cc1`: the T/C under setting [5] is 100 % of control and the T/C under setting [6] was 100 % of control.

For the molecule `Cc1cccc(NC(=O)Nc2cccc(Cl)c2)c1C`, the T/C reads like this: under setting [16], 91 % of control; under setting [19], 90 % of control; under setting [17], 100 % of control; under setting [20], 90 % of control; under setting [18], 93 % of control; under setting [21], 89 % of control.

Take `Cc1ccccc1C1=CCCCC1`: the T/C was 87 % of control (dose: 50.0 mg/kg/injection, schedule: Q01DX001 (ip), vehicle: carboxymethylcellulose (CMC)); 104 % of control under setting [14]; 96 % of control (dose: 200.0 mg/kg/injection, schedule: Q01DX001 (ip), vehicle: carboxymethylcellulose (CMC)); 97 % of control under setting [15].

Turning to `Cc1cc(C)c(C)c(Br)c1C`, the T/C runs as follows: under setting [16], 92 % of control; under setting [19], 104 % of control; under setting [17], 92 % of control; under setting [20], 112 % of control; under setting [18], 86 % of control; under setting [21], 101 % of control.

In the case of `Nc1nc(N)c(-c2ccc(Cl)c(Cl)c2)c(C=O)n1`, the T/C under setting [5] is 107 % of control, the T/C under setting [6] is 114 % of control and the T/C under setting [7] is 111 % of control.

As to `Cc1ccccc1OC(=O)Nc1ccc(C(=O)O)c(O)c1`, the T/C (dose: 100.0 mg/kg/injection, schedule: Q01DX001 (ip), vehicle: saline with Tween-80) was 93 % of control; the T/C under setting [12] is 94 % of control; the T/C (dose: 200.0 mg/kg/injection, schedule: Q01DX001 (ip), vehicle: saline with Tween-80) was 96 % of control; the T/C under setting [13] is 97 % of control; the T/C (dose: 400.0 mg/kg/injection, schedule: Q01DX001 (ip), vehicle: saline with Tween-80) is 93 % of control.

Consider `COc1ccc(COc2ccc(Cl)cc2)cc1OC`, for which the T/C reads like this: under setting [9], 109 % of control; under setting [10], 98 % of control; under setting [11], 101 % of control.
